Assay results as given in paper PMC4809600, “The Influence of Chronic Wound Extracts on Inflammatory Cytokine and Histatin Stability” (PLoS ONE, 2016).

Tests used:
[1] = Stability in PBS, capillary zone electrophoresis; format: physicochemical; conditions: 1 mg/ml in PBS mixed 1:1 with PBS, 37°C, 24 h, CZE, UV 200 nm, ratio to imidazole internal standard, 0 h = 100%
Procedure: To determine the stability of the different peptides in CWE, histatins and cytokines were dissolved in PBS at 1 mg/ml. Histatins and cytokines were incubated in a 1:1 ratio with (i) PBS, (ii) CWE in PBS, or (iii) CWE in PBS containing PIC, in a total volume of 25 μl. Imidazole (Sigma-Aldrich) was added as an internal standard, with a final concentration of 100 μg/ml. The mixtures were incubated at 37°C, and samples were taken at 0, 24, 48, 72 and 96 h. For histatins containing mixtures, additional samples were taken after 2, 4, 8 and 16 h of incubation.
The samples were analyzed with a BioFocus 2000 capillary zone electrophoresis system (Bio-Rad Laboratories, Hercules, CA, USA) equipped with an uncoated fused-silica capillary of internal diameter 50 μm and a length of 24 cm. Samples were loaded by pressure injection (5 psi/sec). Separation was performed at 10 kV (cathode at the detector side) at 20°C using 0.1 M phosphate buffer (pH 2.5) as electrolyte and monitored continuously at 200 nm. Peaks were quantified with the BioFocus Integrator software. In order to quantify the percentage of intact peptides remaining after incubation with CWE, the ratios of histatins, rhIL-6 or rhCXCL8 to internal standard was set at 100% at 0h, and the ratios at the other incubation time points were related to this.

[2] = Stability in chronic wound extracts (CWE), capillary zone electrophoresis; format: in vitro ADME, human; conditions: 37°C, CZE; for Percentage intact, CWE 2h / Percentage intact, CWE 4h / Percentage intact, CWE 8h / Percentage intact, CWE 16h / Percentage intact, CWE 24h / Percentage intact, CWE 48h / Percentage intact, CWE 72h / Percentage intact, CWE 96h: 1 mg/ml in PBS mixed 1:1 with CWE (1 mg/ml protein, pool of 5 donors) in PBS, UV 200 nm, ratio to imidazole
In short: (§1)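 Peptides or cytokines (1 mg/ml stock) mixed 1:1 with PBS or pooled chronic-wound extract (1 mg/ml protein, three pools of five donors), ±protease inhibitor cocktail, at 37 °C for up to 96 h. Analyzed by capillary zone electrophoresis (pH 2.5 phosphate, 200 nm), with peak ratio to imidazole standard relative to 0 h as % intact.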

[3] = Stability in CWE with protease inhibitor cocktail (PIC), capillary zone electrophoresis; format: in vitro ADME, human; conditions: 37°C, CZE, 0 h = 100%; for Percentage intact, CWE + PIC 2h / Percentage intact, CWE + PIC 4h / Percentage intact, CWE + PIC 8h / Percentage intact, CWE + PIC 16h / Percentage intact, CWE + PIC 24h / Percentage intact, CWE + PIC 48h / Percentage intact, CWE + PIC 72h / Percentage intact, CWE + PIC 96h: 1 mg/ml in PBS mixed 1:1 with CWE (1 mg/ml protein, pool of 5 donors) in PBS containing PIC (final 1:140 v/v), ratio to imidazole
In short: as §1

cyclo(DNLPETGGDSHEKRHHGYRRKFHEKHHSHREFPFYGDYGSNYLY) [cHst1]
Percentage intact, PBS 24h ([1]; experiment 1 of 3): 91.5758% | Percentage intact, PBS 24h ([1]; experiment 2 of 3): 95.461% | Percentage intact, PBS 24h ([1]; experiment 3 of 3): 100.575% | Percentage intact, CWE 2h ([2]; 0 h = 100%, experiment 1 of 3): 94.125% | Percentage intact, CWE 2h ([2]; 0 h = 100%, experiment 2 of 3): 97.8952% | Percentage intact, CWE 2h ([2]; 0 h = 100%, experiment 3 of 3): 100% | Percentage intact, CWE 4h ([2]; 0 h = 100%, experiment 1 of 3): 84.7219% | Percentage intact, CWE 4h ([2]; 0 h = 100%, experiment 2 of 3): 88.931% | Percentage intact, CWE 4h ([2]; 0 h = 100%, experiment 3 of 3): 83.8816% | Percentage intact, CWE 8h ([2]; 8 h, 0 h = 100%, experiment 1 of 3): 81.3497% | Percentage intact, CWE 8h ([2]; 8 h, 0 h = 100%, experiment 2 of 3): 83.9314% | Percentage intact, CWE 8h ([2]; 8 h, 0 h = 100%, experiment 3 of 3): 78.1579% | Percentage intact, CWE 16h ([2]; 0 h = 100%, experiment 1 of 3): 71.6467% | Percentage intact, CWE 16h ([2]; 0 h = 100%, experiment 2 of 3): 74.8159% | Percentage intact, CWE 16h ([2]; 0 h = 100%, experiment 3 of 3): 54.5266% | Percentage intact, CWE 24h ([2]; 24 h, 0 h = 100%, experiment 1 of 3): 54.5627% | Percentage intact, CWE 24h ([2]; 24 h, 0 h = 100%, experiment 2 of 3): 58.7294% | Percentage intact, CWE 24h ([2]; 24 h, 0 h = 100%, experiment 3 of 3): 52.1934% | Percentage intact, CWE 48h ([2]; 0 h = 100%, experiment 1 of 3): 29.9428% | Percentage intact, CWE 48h ([2]; 0 h = 100%, experiment 2 of 3): 34.7264% | Percentage intact, CWE 48h ([2]; 0 h = 100%, experiment 3 of 3): 26.5123% | Percentage intact, CWE 72h ([2]; 0 h = 100%, experiment 1 of 3): 20.4492% | Percentage intact, CWE 72h ([2]; 0 h = 100%, experiment 2 of 3): 21.8694% | Percentage intact, CWE 72h ([2]; 0 h = 100%, experiment 3 of 3): 20.7179% | Percentage intact, CWE 96h ([2]; 0 h = 100%, experiment 1 of 3): 15.3884% | Percentage intact, CWE 96h ([2]; 0 h = 100%, experiment 2 of 3): 19.0259% | Percentage intact, CWE 96h ([2]; 0 h = 100%, experiment 3 of 3): 11.1869% | remaining at 8 h, 0.5 mg/ml ([2]; human, chronic wound extracts (CWE), 1 mg/ml in PBS mixed 1:1 with CWE (1 mg/ml protein, pools of 5 donors), 8 h, 0 h = 100%, mean of 3 independent experiments, read-out: Original amount of peptide remaining intact after 8 h in CWE): 81% | remaining at 24 h, 0.5 mg/ml ([2]; human, chronic wound extracts (CWE), 1 mg/ml in PBS mixed 1:1 with CWE (1 mg/ml protein, pools of 5 donors), 24 h, 0 h = 100%, mean of 3 independent experiments, read-out: Original amount of peptide remaining intact after 24 h in CWE): 55% | metabolised at 8 h, 0.5 mg/ml ([2]; human, chronic wound extracts (CWE), incubation with chronic wound extracts, 8 h, read-out: Breakdown (degradation) in CWE in 8 h): ~20% | Percentage intact, CWE + PIC 2h ([3]; experiment 1 of 3): 89.1635% | Percentage intact, CWE + PIC 2h ([3]; experiment 2 of 3): 89.9717% | Percentage intact, CWE + PIC 2h ([3]; experiment 3 of 3): 92.8798% | Percentage intact, CWE + PIC 4h ([3]; experiment 1 of 3): 81.2396% | Percentage intact, CWE + PIC 4h ([3]; experiment 2 of 3): 77.3258% | Percentage intact, CWE + PIC 4h ([3]; experiment 3 of 3): 92.4896% | Percentage intact, CWE + PIC 8h ([3]; experiment 1 of 3): 74.181% | Percentage intact, CWE + PIC 8h ([3]; experiment 2 of 3): 79.1445% | Percentage intact, CWE + PIC 8h ([3]; experiment 3 of 3): 86.6559% | Percentage intact, CWE + PIC 16h ([3]; experiment 1 of 3): 65.982% | Percentage intact, CWE + PIC 16h ([3]; experiment 2 of 3): 74.0107% | Percentage intact, CWE + PIC 16h ([3]; experiment 3 of 3): 77.3109% | Percentage intact, CWE + PIC 24h ([3]; 24 h, experiment 1 of 3): 76.8799% | Percentage intact, CWE + PIC 24h ([3]; 24 h, experiment 2 of 3): 76.3765% | Percentage intact, CWE + PIC 24h ([3]; 24 h, experiment 3 of 3): 70.9573% | Percentage intact, CWE + PIC 48h ([3]; experiment 1 of 3): 68.226% | Percentage intact, CWE + PIC 48h ([3]; experiment 2 of 3): 72.203% | Percentage intact, CWE + PIC 48h ([3]; experiment 3 of 3): 63.9246% | Percentage intact, CWE + PIC 72h ([3]; experiment 1 of 3): 63.1229% | Percentage intact, CWE + PIC 72h ([3]; experiment 2 of 3): 65.5213% | Percentage intact, CWE + PIC 72h ([3]; experiment 3 of 3): 53.9233% | Percentage intact, CWE + PIC 96h ([3]; experiment 1 of 3): 57.543% | Percentage intact, CWE + PIC 96h ([3]; experiment 2 of 3): 57.4907% | Percentage intact, CWE + PIC 96h ([3]; experiment 3 of 3): 51.0863% | remaining at 24 h, 0.5 mg/ml ([3]; human, with protease inhibitor cocktail (PIC), CWE with protease inhibitor cocktail (final 1:140 v/v), 24 h, mean of 3 independent experiments, read-out: Remaining fraction of intact peptide after 24 h in CWE + PIC): 74%
